Experimental data taken from patent US5610158A, “4-oxo- and 4H-imidazo(5,1-c)(1,4)benzoxazines useful as benzodiazepine receptor-binding agents” (The Upjohn Company, priority 1994, dated 1997).

Molecular target: benzodiazepine receptors
Test: displacement of radioactive labelled flunitrazepam from benzodiazepine receptors
Assay type: binding
Experimental: In the following Table, Ki values are shown for Examples 1-19 which include comparative compounds 1, 7, 9 and 11, which are not compounds of the subject invention but are structurally similar.
The Ki value is determined from a concentration response curve obtained in the presence and absence of a fixed concentration of competitive […], flunitrazepam. […] The lower Ki value indicates a higher affinity for benzodiazepine.

| Compound | Ki [nM] |
| --- | --- |
| Nc1ccc2c(c1)OCc1c(-c3noc(C4CC4)n3)ncn1-2 [Example 5, 7-Amino-3-(5-cyclopropyl-1,2,4-oxadiazol-3-yl)-4H-imidazo(5,1-c)(1,4)benzoxazine] | 65.4 |
| c1ccc2c(c1)OCc1c(-c3noc(C4CC4)n3)ncn1-2 [Example 1, 3-(5-Cyclopropyl-1,2,4-oxadiazol-3-yl)-4H-imidazo(5,1-c)(1,4)benzoxazine, reference compound] | 39.7 |
| CC(C)(C)OC(=O)c1ncn2c1COc1ccccc1-2 [Example 11, Tert-butyl 4H-imidazo(5,1-c)(1,4)benzoxazine-3-carboxylate, reference compound] | 69.9 |
| c1ccc2c(c1)OCc1c(-c3nc(C4CC4)no3)ncn1-2 [Example 9, 3-(3-Cyclopropyl-1,2,4-oxadiazol-5-yl)-4H-imidazo(5,1-c)(1,4)benzoxazine, reference compound] | 72.6 |
| CC1(C)Oc2ccccc2-n2cnc(-c3noc(C4CC4)n3)c21 [Example 14, 3-(5-Cyclopropyl-1,2,4-oxadiazol-3-yl)-4,4-dimethyl-4H-imidazo(5,1-c)(1,4)benzoxazine] | 67.1 |
| O=C(OC1Oc2ccccc2-n2cnc(-c3noc(C4CC4)n3)c21)c1ccccc1 (stereo not shown) [Example 3, 3-(5-Cyclopropyl-1,2,4-oxadiazol-3-yl)-4-(benzoyloxy)-4H-imidazo(5,1-c)(1,4)benzoxazine] | 121 |
| O=c1oc2ccccc2n2cnc(-c3noc(C4CC4)n3)c12 [Example 10, 3-(5-Cyclopropyl-1,2,4-oxadiazol-3-yl)-4-oxo-4H-imidazo(5,1-c)(1,4)benzoxazine] | 656 |
| CC(C)(C)OC(=O)Nc1ccc2c(c1)OC(OC(=O)c1ccccc1)c1c(-c3noc(C4CC4)n3)ncn1-2 (stereo not shown) [Example 6, 7-(Amino(t-butoxycarbonyl))3-(5-cyclopropyl-1,2,4-oxadiazol-3-yl)-4-(benzoyloxy)-4H-imidazo(5,1-c)(1,4)benzoxazine] | 10000 |
| CCOC(=O)c1ncn2c1COc1ccccc1-2 [Example 7, Ethyl 4H-imidazo(5,1-c)(1,4)benzoxazine-3-carboxylate, reference compound] | 59.6 |
| CC1Oc2ccccc2-n2cnc(-c3noc(C4CC4)n3)c21 (stereo not shown) [Example 12, 3-(5-Cyclopropyl-1,2,4-oxadiazol-3-yl)-4-methyl-4H-imidazo(5,1-c)(1,4)benzoxazine] | 114 |
| CC(C)(C)OC(=O)Nc1ccc2c(c1)OCc1c(-c3noc(C4CC4)n3)ncn1-2 [Example 2, 7-(Amino(t-butoxycarbonyl))-3-(5-cyclopropyl-1,2,4-oxadiazol-3-yl)-4H-imidazo(5,1-c)(1,4)benzoxazine] | 10000 |
| OC1Oc2ccccc2-n2cnc(-c3noc(C4CC4)n3)c21 (stereo not shown) [Example 4, 3-(5-Cyclopropyl-1,2,4-oxadiazol-3-yl)-4-hydroxy-4H-imidazo(5,1-c)(1,4)benzoxazine] | 118 |
| O=C(Nc1ccc2c(c1)OCc1c(-c3noc(C4CC4)n3)ncn1-2)C(F)(F)F [Example 8, 7-(Amino(trifluoroacetyl))-3-(5-cyclopropyl-1,2,4-oxadiazol-3-yl)-4H-imidazo(5,1-c)(1,4)benzoxazine] | 10000 |
| CN(C)c1noc(-c2ncn3c2COc2cc(F)ccc2-3)n1 [Example 18, 3-(3-dimethylamino-1,2,4-oxadiazol-5-yl)-7-fluoro-4H-imidazo(5,1-c)(1,4)benzoxazine] | 154 |
| CC(C)(C)c1nc(-c2ncn3c2COc2cc(F)ccc2-3)no1 [Example 17, 3-(5-Tert-butyl-1,2,4-oxadiazol-3-yl)-7-fluoro-4H-imidazo(5,1-c)(1,4)benzoxazine] | 443 |
| CC(C)(C)OC(=O)c1ncn2c1COc1c-2ccc(F)c1C#N [Example 19, Tert-butyl 6-cyano-7-fluoro-4H-imidazo(5,1-c)(1,4)benzoxazine-3-carboxylate] | 4.6 |
| CCOC(=O)c1ncn2c1COc1cc(F)ccc1-2 [Example 15, Ethyl 7-fluoro-4H-imidazo(5,1-c)(1,4)benzoxazine-3-carboxylate] | 4.59 |
| CC(C)(C)OC(=O)c1ncn2c1COc1cc(F)ccc1-2 [Example 16, Tert-butyl 7-fluoro-4H-imidazo(5,1-c)(1,4)benzoxazine-3-carboxylate] | 32.4 |
| Fc1ccc2c(c1)OCc1c(-c3noc(C4CC4)n3)ncn1-2 [Example 13, 3-(5-Cyclopropyl-1,2,4-oxadiazol-3-yl)-7-fluoro-4H-imidazo(5,1-c)(1,4)benzoxazine] | 8.56 |
